These results are taken from patent US20140303164A1, “THERAPEUTIC COMPOUNDS” (Gilead Sciences, Inc., priority 2013, published 2014).

The nature of series [1]: Test B: Cytotoxicity Assay. To be noted: human, uninfected MT-4 cells, same protocol as Test A. It is filed as cell-based. Summed up:
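Uninfected MT-4 cells (2000 per well) incubated with diluted compound at 37° C. for 5 days, following the antiviral protocol without HIV-IIIb.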

Another series relates to HIV-IIIb. In words: Test A: Antiviral Assay in MT4 Cells. The conditions noted are these: Human immunodeficiency virus 1, IIIB, MT4, 120 h; for inhibition at 0.2 µM: read-out: % inhibition at 0.2 μM; for inhibition at 2 µM: read-out: % inhibition at 2 μM. Type of series: cell-based, HIV-1. The protocol: Test A: Antiviral Assay in MT4 Cells
MT-4 cells were next mixed with HIV-IIIb at an m.o.i of 0.003 for 1 hour, after which time 35 μL of virus/cell mixture (2000 cells) was immediately added to each well containing 40 μL of diluted compound. The plates were then incubated at 37° C. for 5 days. […] Cell lysis was carried out by incubating at room temperature for 10 min and then chemiluminescence was read.

Regarding `CC(C)(O)C#Cc1ccc(-c2cc(C(=O)NC3COC3)c3nccn3c2)c([C@H](Cc2cc(F)cc(F)c2)NC(=O)Cn2nc(C(F)(F)F)c3c2C(F)(F)[C@@H]2C[C@H]32)n1` [Compound 35D, 6-(2-((S)-1-(2-((3bS,4aR)-5,5-difluoro-3-(trifluoromethyl)-3b,4,4a,5-tetrahydro-1H-cyclopropa[3,4]cyclopenta[1,2-c]pyrazol-1-yl)acetamido)-2-(3,5-difluorophenyl)ethyl)-6-(3-hydroxy-3-methylbut-1-yn-1-yl)pyridin-3-yl)-N-(oxetan-3-yl)imidazo[1,2-a]pyridine-8-carboxamide], the cytotoxic concentration (CC50) (usually the concentration giving 50% cytotoxicity) at 5 days in series [1] was found to be 14.2 µM. In the series on HIV-IIIb, the inhibition (commonly the relative decrease from the control value, in per cent) at 0.2 µM worked out at 28% and the inhibition at 2 µM was 91%.
For `Cc1ccc(-c2ccc(C#CC(C)(C)C)nc2[C@H](Cc2cc(F)cc(F)c2)NC(=O)Cn2nc(C(F)F)c3c2C(F)(F)[C@@H]2C[C@H]32)c2nnc(NS(C)(=O)=O)n12` [Compound 133, 2-((3bS,4aR)-3-(difluoromethyl)-5,5-difluoro-3b,4,4a,5-tetrahydro-1H-cyclopropa[3,4]cyclopenta[1,2-c]pyrazol-1-yl)-N—((S)-2-(3,5-difluorophenyl)-1-(6-(3,3-dimethylbut-1-yn-1-yl)-3-(5-methyl-3-(methylsulfonamido)-[1,2,4]triazolo[4,3-a]pyridin-8-yl)pyridin-2-yl)ethyl)acetamide], the CC50 at 5 days in series [1] is 16.8 µM. In the series with HIV-IIIb, the inhibition at 0.2 µM was 90% and the inhibition at 2 µM came out at 90%.
Take `CC(C)(O)C#Cc1ccc(-c2ccc3[nH]nc(N)c3c2)c([C@H](Cc2cc(F)cc(F)c2)NC(=O)Cn2nc(C(F)(F)F)c3c2C(F)(F)[C@@H]2C[C@H]32)n1` [Compound 46, N—((S)-1-(3-(3-amino-1H-indazol-5-yl)-6-(3-hydroxy-3-methylbut-1-yn-1-yl)pyridin-2-yl)-2-(3,5-difluorophenyl)ethyl)-2-((3b-S,4aR)-5,5-difluoro-3-(trifluoromethyl)-3b,4,4a,5-tetrahydro-1H-cyclopropa[3,4]cyclopenta[1,2-c]pyrazol-1-yl)acetamide]: in series [1], the CC50 at 5 days came out at 10.5 µM. Further, in the series on HIV-IIIb, the inhibition at 0.2 µM stood at 87% and the inhibition at 2 µM worked out at 89%.
With `CC(=O)Nc1nn(C)c2c(-c3ccc(C#CC(C)(C)O)nc3[C@H](Cc3cc(F)cc(F)c3)NC(=O)Cn3nc(C(F)F)c4c3C(F)(F)[C@@H]3C[C@H]43)ccc(Cl)c12` [Compound 94, N—((S)-1-(3-(3-acetamido-4-chloro-1-methyl-1H-indazol-7-yl)-6-(3-hydroxy-3-methylbut-1-yn-1-yl)pyridin-2-yl)-2-(3,5-difluorophenyl)ethyl)-2-((3b-S,4aR)-3-(difluoromethyl)-5,5-difluoro-3b,4,4a,5-tetrahydro-1H-cyclopropa[3,4]cyclopenta[1,2-c]pyrazol-1-yl)acetamide], the 50% cytotoxic concentration (CC50) at 5 days in series [1] stood at 7.58 µM. In addition, in the series with HIV-IIIb, the inhibition at 0.2 µM was determined as 100% and the inhibition at 2 µM came to 100%.
The molecule `O=C(Cn1nc(C(F)F)c2c1C(F)(F)CCC2(F)F)N[C@@H](Cc1cc(F)cc(F)c1)c1nc(-c2c[nH]nn2)ccc1-c1cnc2[nH]ccc2c1` [Compound 16C, (S)—N-(1-(3-(1H-pyrrolo[2,3-b]pyridin-5-yl)-6-(1H-1,2,3-triazol-4-yl)pyridin-2-yl)-2-(3,5-difluorophenyl)ethyl)-2-(3-(difluoromethyl)-4,4,7,7-tetrafluoro-4,5,6,7-tetrahydro-1H-indazol-1-yl)acetamide] displayed a CC50 at 5 days in series [1] of 3.67 µM. Further, in the series with HIV-IIIb, the inhibition at 0.2 µM turned out to be 23% and the inhibition at 2 µM amounted to 65%.
Take `CCNS(=O)(=O)Nc1nn(C)c2c(-c3ccc(C#CC(C)(C)O)nc3[C@H](Cc3cc(F)cc(F)c3)NC(=O)Cn3nc(C(F)(F)F)c4c3C(F)(F)[C@@H]3C[C@H]43)cccc12` [Compound 53, 2-((3bS,4aR)-5,5-difluoro-3-(trifluoromethyl)-3b,4,4a,5-tetrahydro-1H-cyclopropa[3,4]cyclopenta[1,2-c]pyrazol-1-yl)-N—((S)-2-(3,5-difluorophenyl)-1-(3-(3-((N-ethylsulfamoyl)amino)-1-methyl-1H-indazol-7-yl)-6-(3-hydroxy-3-methylbut-1-yn-1-yl)pyridin-2-yl)ethyl)acetamide]: the midpoint of cytotoxicity in series [1], the CC50 at 5 days, lay at 8.03 µM. Also, in the series with HIV-IIIb, the inhibition at 0.2 µM was 92% and the inhibition at 2 µM is 92%.
For the molecule `Cc1nc(NS(C)(=O)=O)c2cccc(-c3ccc(C#CC(C)(C)O)nc3[C@H](Cc3cc(F)cc(F)c3)NC(=O)Cn3nc(C(F)F)c4c3C(F)(F)[C@@H]3C[C@H]43)n12` [Compound 120H, 2-((3b-S,4aR)-3-(difluoromethyl)-5,5-difluoro-3b,4,4a,5-tetrahydro-1H-cyclopropa[3,4]cyclopenta[1,2-c]pyrazol-1-yl)-N—((S)-2-(3,5-difluorophenyl)-1-(6-(3-hydroxy-3-methylbut-1-yn-1-yl)-3-(3-methyl-1-(methylsulfonamido)imidazo[1,5-a]pyridin-5-yl)pyridin-2-yl)ethyl)acetamide], the CC50 at 5 days in series [1] was found to be 11.7 µM. In the series on HIV-IIIb, the inhibition at 0.2 µM amounted to 51% and the inhibition at 2 µM is 88%.
Consider `Cn1nc(NC(=O)CO)c2c(Cl)ccc(-c3ccc(C#CC(C)(C)O)nc3[C@H](Cc3cc(F)cc(F)c3)NC(=O)Cn3nc(C(F)F)c4c3C(F)(F)[C@@H]3C[C@H]43)c21` [Compound 88, N—((S)-1-(3-(4-chloro-3-(2-hydroxyacetamido)-1-methyl-1H-indazol-7-yl)-6-(3-hydroxy-3-methylbut-1-yn-1-yl)pyridin-2-yl)-2-(3,5-difluorophenyl)ethyl)-2-((3b-S,4aR)-3-(difluoromethyl)-5,5-difluoro-3b,4,4a,5-tetrahydro-1H-cyclopropa[3,4]cyclopenta[1,2-c]pyrazol-1-yl)acetamide], for which the midpoint of cytotoxicity in series [1], the CC50 at 5 days, lay at 8.49 µM. In the series on HIV-IIIb, the inhibition at 0.2 µM was determined as 100% and the inhibition at 2 µM was determined as 100%.
Regarding `CC(C)(O)C#Cc1ccc(-c2ccc3nnc(N)n3c2)c([C@H](Cc2cc(F)cc(F)c2)NC(=O)Cn2nc(C(F)F)c3c2C(F)(F)[C@@H]2C[C@H]32)n1` [Compound 105E, N—((S)-1-(3-(3-amino-[1,2,4]triazolo[4,3-a]pyridin-6-yl)-6-(3-hydroxy-3-methylbut-1-yn-1-yl)pyridin-2-yl)-2-(3,5-difluorophenyl)ethyl)-2-((3b-S,4aR)-3-(difluoromethyl)-5,5-difluoro-3b,4,4a,5-tetrahydro-1H-cyclopropa[3,4]cyclopenta[1,2-c]pyrazol-1-yl)acetamide], half-maximal cytotoxicity in series [1] (CC50 at 5 days) was put at 31.5 µM. Further, the inhibition at 2 µM in the series with HIV-IIIb turned out to be 74%.
In turn, `Cn1nc(NS(C)(=O)=O)c2c(Cl)ccc(-c3ccc(C#CCOCCO)nc3[C@H](Cc3cc(F)cc(F)c3)NC(=O)Cn3nc(C(F)(F)F)c4c3C(F)(F)[C@@H]3C[C@H]43)c21` [Compound 153, N—((S)-1-(3-(4-chloro-1-methyl-3-(methylsulfonamido)-1H-indazol-7-yl)-6-(3-(2-hydroxyethoxy)prop-1-yn-1-yl)pyridin-2-yl)-2-(3,5-difluorophenyl)ethyl)-2-((3b-S,4aR)-5,5-difluoro-3-(trifluoromethyl)-3b,4,4a,5-tetrahydro-1H-cyclopropa[3,4]cyclopenta[1,2-c]pyrazol-1-yl)acetamide] displayed a CC50 at 5 days in series [1] of 18.6 µM. Besides, in the series on HIV-IIIb, the inhibition at 0.2 µM turned out to be 98% and the inhibition at 2 µM amounted to 98%.
The molecule `Cn1nc(NS(N)(=O)=O)c2c(Cl)ccc(-c3ccc(C#CC(C)(C)O)nc3[C@H](Cc3cc(F)cc(F)c3)NC(=O)Cn3nc(C(F)(F)F)c4c3C(F)(F)[C@@H]3C[C@H]43)c21` [Compound 119C, N—((S)-1-(3-(4-chloro-1-methyl-3-(sulfamoylamino)-1H-indazol-7-yl)-6-(3-hydroxy-3-methylbut-1-yn-1-yl)pyridin-2-yl)-2-(3,5-difluorophenyl)ethyl)-2-((3b-S,4aR)-5,5-difluoro-3-(trifluoromethyl)-3b,4,4a,5-tetrahydro-1H-cyclopropa[3,4]cyclopenta[1,2-c]pyrazol-1-yl)acetamide] yielded a cytotoxic concentration (CC50) at 5 days in series [1] of 9.24 µM. Also, in the series on HIV-IIIb, the inhibition at 0.2 µM stood at 99% and the inhibition at 2 µM is 99%.
`Cn1nc(NS(C)(=O)=O)c2c(Cl)ccc(-c3ccc(C#CC(C)(C)O)nc3[C@H](Cc3cc(F)cc(F)c3)NC(=O)Cc3cccc(Cl)c3Cl)c21` [Compound 129, (S)—N-(1-(3-(4 chloro-1-methyl-3-(methylsulfonamido)-1H-indazol-7-yl)-6-(3-hydroxy-3-methylbut-1-yn-1-yl)pyridin-2-yl)-2-(3,5-difluorophenyl)ethyl)-2-(2,3-dichlorophenyl)acetamide]: the half-maximal cytotoxic concentration (CC50) at 5 days in series [1] amounted to 12.1 µM. Moreover, in the series on HIV-IIIb, the inhibition at 0.2 µM worked out at 54% and the inhibition at 2 µM came out at 82%.
For `Cc1ccc(-c2ccc(C#CC(C)(C)C)nc2[C@H](Cc2cc(F)cc(F)c2)NC(=O)Cn2nc(C(F)F)c3c2C(F)(F)[C@@H]2C[C@H]32)c2nnc(N)n12` [Compound 116A, N—((S)-1-(3-(3-amino-5-methyl-[1,2,4]triazolo[4,3-a]pyridin-8-yl)-6-(3,3-dimethylbut-1-yn-1-yl)pyridin-2-yl)-2-(3,5-difluorophenyl)ethyl)-2-((3b-S,4aR)-3-(difluoromethyl)-5,5-difluoro-3b,4,4a,5-tetrahydro-1H-cyclopropa[3,4]cyclopenta[1,2-c]pyrazol-1-yl)acetamide] the same measures were 10.5 µM, 62% and 93%.
